Source: publication PMC11568214, “The impact of 9-azaglycophymine and phenylguanidine derivatives on the proliferation of various breast cancer cell lines in vitro and in vivo” (Scientific Reports, 2024)

Legend:
[1] = Histopathology of tumors, kidneys, livers and spleens in the 4T1 in vivo study; design: species or system BALB/c mice
From the text: Tissue samples of tumors, kidneys, livers and spleens were fixed in 4% (v/v) formalin. After fixation, tissues were embedded in paraffin blocks, and 4 µm thick sections were obtained, mounted on glass slides, stained with Hematoxylin Eosin, and analyzed by using an Olympus BX43 microscope (Olympus, Tokyo, Japan). All slides were scanned with a Leica Biosystems Aperio AT2 with ×400 magnification (n = 3 per group). Virtual slides generated from Leica Aperio AT2 (Wetzlar, Germany) were additionally analyzed with Aperio ImageScope (v12.4.3.5008) and with FIJI-ImageJ software.

[2] = test system: BT-474; assay: Autophagy induction, acridine orange staining, flow cytometry; type: cell-based, human; design: key: ↑: induction; ↓: inhibition; ↔: no effect; details: BT-474, IC50 for 72 h
Description: (§1) Cells were seeded in 6-well plates and incubated for 24 h under standard culture conditions. […] For the analyses of autophagy induction, the cell suspension was centrifuged for 3 min at 800 rpm, and the cell pellet was stained with 1 mL of AO working solution (1 µg/mL of AO in growth medium). Cells were incubated for 15 min under standard culture conditions. The cell suspension was centrifuged for 3 min at 800 rpm, and the cell pellet was washed with 1 mL of fresh PBS. Finally, all samples were analyzed by using flow cytometry (FACSAria III, BD Biosciences, New Jersey, USA).

[3] = test system: HCC1937; assay: as above; type: cell-based, human; design: key: ↑: induction; ↓: inhibition; ↔: no effect; details: HCC1937, IC50 for 72 h
Description: as §1

[4] = test system: MCF-7; assay: as above; type: cell-based, human; design: key: ↑: induction; ↓: inhibition; ↔: no effect; details: MCF-7, IC50 for 72 h
Description: as §1

[5] = test system: MDA-MB-468; assay: as above; type: cell-based, human; design: key: ↑: induction; ↓: inhibition; ↔: no effect; details: MDA-MB-468, IC50 for 72 h
Description: as §1

[6] = test system: BT-474; assay: Cell division analysis, CFSE staining, flow cytometry; type: cell-based, human; design: key: ↑: induction; ↓: inhibition; ↔: no effect; details: BT-474, IC50 for 72 h
Description: (§2) The cells were stained with CFSE (1 µM) in PBS containing 0.1% (v/v) FCS for 10 min. Afterwards, cells were washed with PBS, and then seeded with growth medium in 6-well plates. The plates were incubated for 24 h under standard culture conditions. […] Subsequently, the cells were detached using 0.5 mL of 0.05% (v/v) Trypsin–EDTA for 3 min at 37 °C. Then trypsin was deactivated by the addition of FCS-containing growth medium. The cell suspensions were collected, centrifuged for 3 min at 800 rpm, and the cell pellets were resuspended in fresh PBS. Finally, the samples were analyzed by using flow cytometry.

[7] = test system: HCC1937; assay: as above; type: cell-based, human; design: key: ↑: induction; ↓: inhibition; ↔: no effect; details: HCC1937, IC50 for 72 h
Description: as §2

[8] = test system: MCF-7; assay: as above; type: cell-based, human; design: key: ↑: induction; ↓: inhibition; ↔: no effect; details: MCF-7, IC50 for 72 h
Description: as §2

[9] = test system: MDA-MB-468; assay: as above; type: cell-based, human; design: key: ↑: induction; ↓: inhibition; ↔: no effect; details: MDA-MB-468, IC50 for 72 h
Description: as §2

[10] = test system: BT-474; assay: Apoptosis analysis, AnnV/PI staining, flow cytometry; type: cell-based, human; details: BT-474, IC50 for 72 h; control cells 20%
Description: (§3) Cells were seeded in 6-well plates and incubated for 24 h under standard culture conditions. […] For apoptosis analyses, the cell suspension was centrifuged for 3 min at 800 rpm, and the cell pellet was stained by using 100 µL of AnnV/PI working solution (5 µL of AnnV, 2 µL of PI in 100 µL of PBS) for 15 min at RT and protected from light. The staining was terminated by the addition of 900 µL of annexin binding buffer. Finally, all samples were analyzed by using flow cytometry (FACSAria III, BD Biosciences, New Jersey, USA).

[11] = test system: HCC1937; assay: as above; type: cell-based, human; details: HCC1937, IC50 for 72 h; control cells 19%
Description: as §3

[12] = test system: MCF-7; assay: as above; type: cell-based, human; details: MCF-7, IC50 for 72 h
Description: as §3

[13] = test system: MDA-MB-468; assay: as above; type: cell-based, human; details: MDA-MB-468, IC50 for 72 h
Description: as §3

[14] = test system: BT-474; assay: ROS production, DHR staining, flow cytometry; type: cell-based, human; design: key: ↑: induction; ↓: inhibition; ↔: no effect; details: BT-474, IC50 for 72 h
Description: as §2, with “cytometry. For ROS production analyses, the procedure was performed exactly as described above for the cell division experiments, except that the CFSE staining solution was replaced by DHR staining solution resulting in 1 µM of DHR in PBS containing 0.1% (v/v) FCS[34],[35].” for “cytometry.”

[15] = test system: HCC1937; assay: ROS production, DHR staining, flow cytometry; type: cell-based, human; design: key: ↑: induction; ↓: inhibition; ↔: no effect; details: HCC1937, IC50 for 72 h
Description: as §2, with “cytometry. For ROS production analyses, the procedure was performed exactly as described above for the cell division experiments, except that the CFSE staining solution was replaced by DHR staining solution resulting in 1 µM of DHR in PBS containing 0.1% (v/v) FCS[34],[35].” for “cytometry.”

[16] = test system: MCF-7; assay: ROS production, DHR staining, flow cytometry; type: cell-based, human; design: key: ↑: induction; ↓: inhibition; ↔: no effect; details: MCF-7, IC50 for 72 h
Description: as §2, with “cytometry. For ROS production analyses, the procedure was performed exactly as described above for the cell division experiments, except that the CFSE staining solution was replaced by DHR staining solution resulting in 1 µM of DHR in PBS containing 0.1% (v/v) FCS[34],[35].” for “cytometry.”

[17] = test system: MDA-MB-468; assay: ROS production, DHR staining, flow cytometry; type: cell-based, human; design: key: ↑: induction; ↓: inhibition; ↔: no effect; details: MDA-MB-468, IC50 for 72 h
Description: as §2, with “cytometry. For ROS production analyses, the procedure was performed exactly as described above for the cell division experiments, except that the CFSE staining solution was replaced by DHR staining solution resulting in 1 µM of DHR in PBS containing 0.1% (v/v) FCS[34],[35].” for “cytometry.”

[18] = test system: 4T1; assay: Apoptosis analysis, AnnV/PI staining, flow cytometry; type: cell-based, mouse; details: 4T1, IC50 for 72 h; control cells 31%
Description: as §3

With `O=c1[nH]c(Nc2ccc([N+](=O)[O-])cc2)nc2ccccc12` [Compound 19, 4′-nitro-9-aza-glycophymine] the “morphological changes in kidney, spleen and liver tissue” value ([1]; 5 and 20 mg/kg i.p., day 21, compared to control group) was “did not cause significant morphological changes”, the “extent of tumor necrosis” value ([1]; treated animals in comparison to the control group, day 21) was “a higher extent of necrosis was found in treated animals” and the Autophagy [2] was “↔”. For the same compound, the Autophagy [3] was “↔”, the Autophagy [4] was “↔” and the Autophagy [5] was “↔”. The Proliferation [6] was “↓”, the Proliferation [7] was “↓” and the Proliferation [8] was “↔”. For the same compound, the Proliferation [9] was “↔”, the “percentage of apoptotic cells” value [10] was 51% and the “percentage of apoptotic cells” value [11] was 47%. The “induction of apoptotic cell death” value [12] was “did neither activate caspases nor apoptotic cell death”, the “induction of apoptotic cell death” value [13] was “did neither activate caspases nor apoptotic cell death” and the ROS [14] was “↓”. For the same compound, the ROS [15] was “↓”, the ROS [16] was “↔” and the ROS [17] was “↔”. For the same compound, the “percentage of apoptotic cells” value [18] was 69%.
